Experimental data from patent US6861442B1, “PYK2 and inflammation” (Sugen, Inc., priority 1998, dated 2005).

Experiments:
P388D1 cells = test: TNF-α secretion by P388D1 macrophage clones measured by ELISA; format: cell-based, murine; settings: for Secretion of TNF-α: P388D1 cells stimulated with LPS or PMA; for Secretion of TNF-α caused by the stimulus: 1 μg/mL, overnight (18 hours), P388D1 doxycycline inducible clones
Text: FIGS. 8a, 8b, 8c, and 8d compare the secretion of TNF-α by wild-type and kinase mutant P388D1 cells in response to activators of macrophage function or PYK2 activity. FIGS. 8a and 8b show the effect of LPS in the presence and absence of DOX on TNF-α secretion from kinase mutant (dominant negative; FIG. 8a) and wild-type (FIG. 8b) cells. FIGS. 8c and 8d show the effect of PMA in the presence and absence of DOX on TNF-α secretion from kinase mutant (FIG. 8c) and wild-type (FIG. 8d) cells. Induction of P388D1 cells in the presence of doxicycline was carried out for 48 hours followed by stimulation with LPS (1 μg/mL) or PMA (1 μg/mL) for 18 hrs. Secreted TNF-α was measured by ELISA.
TNF secretion in response to stimulation with either LPS (1 μg/mL) or PMA (1 μg/mL) by the doxycycline inducible clones is shown in FIG. 8. Induction in the presence of doxycycline was carried out for 48 hours followed by stimulation with LPS or PMA overnight (18 hours). […] Secreted TNF-α was measured by ELISA. […] Secretion of TNF-α was inhibited by herbimycin A and genestein, which are non-specific inhibitors of tyrosine phosphorylation.

Pyk2 = biological target: T1, Pyk2 (Mus musculus, UniProt Q9QVP9); test: Tyrosine phosphorylation of Pyk2 in response to LPS stimulation in P388D1 cells (anti-Pyk2 IP, anti-phosphotyrosine 4G10 western blot); format: cell-based, murine; settings: P388D1 cells pre-treated 4 hours, then stimulated with LPS for 30 minutes
T1 construct: abrogates the function of the endogenous wild-type PYK2 protein in these macrophages; endogenous in cells; host or cells: P388D1 murine macrophage cell line
T1 sequence (Q9QVP9 whole entry): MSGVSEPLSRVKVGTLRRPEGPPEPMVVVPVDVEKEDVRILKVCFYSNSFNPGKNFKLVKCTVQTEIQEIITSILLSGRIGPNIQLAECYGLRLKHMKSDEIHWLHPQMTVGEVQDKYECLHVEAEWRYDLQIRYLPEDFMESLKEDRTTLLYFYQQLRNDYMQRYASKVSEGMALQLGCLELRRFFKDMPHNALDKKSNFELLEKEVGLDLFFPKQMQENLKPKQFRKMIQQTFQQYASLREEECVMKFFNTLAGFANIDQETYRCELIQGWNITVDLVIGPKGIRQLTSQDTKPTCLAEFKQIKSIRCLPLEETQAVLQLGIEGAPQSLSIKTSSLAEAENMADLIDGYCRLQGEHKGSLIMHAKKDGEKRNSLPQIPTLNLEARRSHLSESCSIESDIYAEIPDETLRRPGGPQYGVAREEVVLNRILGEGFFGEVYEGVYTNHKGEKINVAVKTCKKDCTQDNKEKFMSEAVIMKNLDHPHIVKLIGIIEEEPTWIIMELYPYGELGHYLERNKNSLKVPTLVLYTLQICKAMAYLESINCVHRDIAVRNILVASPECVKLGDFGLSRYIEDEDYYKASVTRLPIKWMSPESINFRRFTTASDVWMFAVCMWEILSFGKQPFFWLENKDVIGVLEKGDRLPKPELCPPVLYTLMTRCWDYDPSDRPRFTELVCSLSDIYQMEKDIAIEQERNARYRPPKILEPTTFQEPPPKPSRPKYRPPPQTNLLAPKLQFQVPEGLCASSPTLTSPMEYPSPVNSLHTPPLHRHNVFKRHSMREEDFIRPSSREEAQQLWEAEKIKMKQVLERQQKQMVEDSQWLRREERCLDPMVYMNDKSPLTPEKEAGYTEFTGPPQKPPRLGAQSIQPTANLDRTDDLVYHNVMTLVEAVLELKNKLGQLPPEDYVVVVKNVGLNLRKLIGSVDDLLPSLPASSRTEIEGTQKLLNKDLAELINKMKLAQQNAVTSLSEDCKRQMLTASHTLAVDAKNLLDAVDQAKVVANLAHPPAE
Method: FIGS. 6a and 6b show the tyrosine phosphorylation of PYK2 in macrophage cell lines in response to LPS (lipopolysaccharide) and tyrosine kinase inhibitors. Cells were either starved overnight in 0.5% serum and stimulated with LPS for variable time intervals (FIG. 6a), or were pre-treated with either herbimycin A or genestein for 4 hours and then stimulated with LPS for 30 minutes (FIG. 6b). After stimulation, cells were washed, lysed, and immunoprecipitated with anti-PYK2 antibody. Immunoprecipitates (IP) were then analyzed by western blotting.
Cells were lysed in lysis buffer containing 50 mM N-2-hydroxyethylpiperazine-N′-2-ethanesulferic acid (HEPES pH 7.5), 150 mM NaCl, 10% glycerol, 1% Triton X-100, 1.5 mM MgCl2, 1 mM ethyleneglycol-bis (β-aminoethyl ether)-N,N,N′N′-tetraacetic acid (EGTA), 10 μg leupeptin per mL, 10 μg aprotinin per mL, 1 mM phenylmethylsulfonyl fluoride (PMSF), 200 μM sodium orthovanadate and 100 mM sodium fluoride. […] The washed immunoprecipitates were incubated for 5 min with gel sample buffer at 100° C. and analyzed by sodium dodecyl sulfate polyacrylamide gel electrophoresis (SDS-PAGE). […]
Tyrosine phosphorylation of Pyk2 in response to LPS stimulation was measured in P388D1 cells. […] Immuno-precipitates were then analyzed by western blotting. Tyrosine phosphorylated bands were detected with the anti-phosphotyrosine antibody 4G10. […]

wild type macrophages = test: Cytoplasmic calcium release in single Fura-2 loaded adherent macrophages; format: cell-based, mice; settings: wild type macrophages attached to cover slips
Method: Cells grown in 6-well plates were labeled for 24 h in medium-199 containing myo-[^3H]inositol(20 μCi/ml). The cells were washed once with PBS and pre-incubated for 10 min. in 2 ml of PBS containing 10 mM LiCl (PH 7.4) at 37° C. prior to the addition of chemokines. The cells were extracted with methanol/1M HCl/chloroform 1:1:1 and analyzed by high-performance liquid chromatography (HPLC) as described (Falasca, et al. (1998) EMBO J. 17:414-422). [Ca^2+] i measurements were performed in single macrophages as described (Falasca, et al. 1995).
Calcium plays an important role in the control of a variety of intracellular events as well as in the control of cell shape, and cell movement (Lawson and Maxfield, 1995). We therefore measured cytoplasmic calcium release in single cells in response to MIP1α stimulation by using quantitative fluorescence microscopy of Fura-2 loaded cells. […] Defect in calcium release may contribute towards the failure of the cells to detach at the rear end leading to impairment in cell migration since proteins that regulate the degradation of focal contact components and disassembly of F-actin require calcium for their action (Witke, et al. (1995) Cell 81:41-51; Kulkarni, et al. (1999) J. Biol Chem. 274:21265-21275).

O=c1c(-c2ccc(O)cc2)coc2cc(O)cc(O)c12 [genestein]
Secretion of TNF-α (P388D1 cells): inhibited
Tyrosine phosphorylation of Pyk2 (Pyk2): diminished

lipopolysaccharide [LPS]
Secretion of TNF-α caused by the stimulus (P388D1 cells): caused secretion of TNF-α

CO[C@H]1[C@@H](OC)C[C@H](C)[C@@H](OC)C2=CC(=O)C=C(NC(=O)/C(C)=C/C=C\[C@H](OC)[C@@H](OC(N)=O)/C(C)=C/[C@@H]1C)C2=O [herbimycin A]
Secretion of TNF-α (P388D1 cells): inhibited
Tyrosine phosphorylation of Pyk2 (Pyk2): diminished

MIP1α: chemokine used to stimulate macrophages
Maximum increase in cytoplasmic [Ca+2] concentration (wild type macrophages): approximately 300 nM

CCCCCCCCCCCCCC(=O)O[C@@H]1[C@@H](C)[C@@]2(O)[C@@H](C=C(CO)C[C@]3(O)C(=O)C(C)=C[C@@H]23)[C@@H]2C(C)(C)[C@]12OC(C)=O [PMA, phorbol 12-myristate 13-acetate]
Secretion of TNF-α caused by the stimulus (P388D1 cells): caused secretion of TNF-α
